Legend:
[1] = tested on: beta-lactamases, including NDM-1, IMP-1, VIM-2, KPC-2, OXA-48, AmpC, and TEM; experiment: Fluorescence-based activity assay, whole panel of tested beta-lactamases; assay type: biochemical; details: conclusion from fluorescence signals
Procedure: (§1) Recombinant his-tagged beta-lactamases, including NDM-1, IMP-1, KPC-2, VIM-2 and OXA-48 were overexpressed in Escherichia coli. The enzymes were purified using HisTrap Ni-NTA columns. AmpC and TEM were purchased from commercial sources.
(§2) The fluorescence-based activity assays were performed in phosphate-buffer saline. The concentration of some of the compounds were determined by boiling the compounds in PBS solution until fluorescence signal was saturated. The amount of released fluorophore was quantified via fluorescence spectroscopy by comparing to a corresponding calibration curve.
(§3) Among the tested beta-lactamases, NDM-1, IMP-1, VIM-2, KPC-2 and OXA-48 are carbapenemases, whereas AmpC and TEM are not. Nitrocefin was used as a control to test the activity of the beta-lactamases because it can be hydrolyzed by a wide range of beta-lactamases.

[2] = tested on: clinical isolates (CPE, Carbapenemase Producing Enterobacteriaceae, and Non CPE strains); experiment: Selectivity of probes with clinical isolates in lysis buffer (visible light and UV light); assay type: cell-based; details: probe 10 μM
Procedure: The selectivity of some probes were evaluated with clinical isolates. The carbapenemases presence in the bacteria (CPE, i.e., Carbapenemase Producing Enterobacteriaceae) were verified by PCR (Polymerase Chain Reaction). 1 μL loop-full of each test bacterium from overnight-cultured LB agar plate were added to 100 μL PBS buffer with 0.5% CHAPS. The bacteria were vortexed to give a homogenious suspension and incubated for 15 min. To each of the bacteria-lysis buffer mixture (20 μL) were added quick test reagents (Probes (Final concentration=10 μM), CarbaNP solution A and CarbaNP solution B). CarbaNP solutions A and B were freshly prepared according to CLSI protocol, where solution A contains 10 mM zinc sulphate and phenol red buffer at pH=7.8±0.1 and solution B was a mixture of solution A with 3 mg/mL imipenem.

TEM = molecular target: T1, TEM (Escherichia coli, UniProt P62593); experiment: Activity of beta-lactamases towards probes (fluorescence-based activity assay), TEM; assay type: biochemical; details: probe 2.0 μM (MCW-002 1.1 μM, MCW-011 0.5 μM), PBS
T1 construct: purchased
T1 sequence (P62593 24-286 limits assumed): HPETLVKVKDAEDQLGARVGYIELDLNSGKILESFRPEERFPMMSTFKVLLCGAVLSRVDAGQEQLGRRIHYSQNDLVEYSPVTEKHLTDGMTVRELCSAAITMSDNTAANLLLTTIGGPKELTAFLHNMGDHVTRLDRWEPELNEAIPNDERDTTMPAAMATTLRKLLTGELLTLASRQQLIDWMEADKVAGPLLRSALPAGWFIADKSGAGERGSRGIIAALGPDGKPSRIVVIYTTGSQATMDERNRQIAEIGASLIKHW
Procedure: as §1, §2

OXA-48 = molecular target: T2, OXA-48 (Klebsiella pneumoniae, UniProt Q6XEC0); assay type: biochemical; details: for fluorescence signal over time: probe 2.0 μM (MCW-011 0.5 μM), PBS
T2 construct: His tag; made in house; host or cells: Escherichia coli
T2 sequence (Q6XEC0 23-265 limits assumed): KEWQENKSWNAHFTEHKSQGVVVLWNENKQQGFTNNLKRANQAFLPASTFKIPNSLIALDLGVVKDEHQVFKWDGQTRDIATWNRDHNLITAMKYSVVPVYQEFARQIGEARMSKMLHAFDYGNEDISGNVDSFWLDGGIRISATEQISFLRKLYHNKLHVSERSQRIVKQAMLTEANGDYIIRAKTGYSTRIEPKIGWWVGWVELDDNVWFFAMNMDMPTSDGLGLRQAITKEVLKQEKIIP
Procedure: as §1, §2

VIM-2 = molecular target: T3, VIM-2 (Escherichia coli, UniProt Q5U7L7); assay type: biochemical; details: for Kcat / Km: Michaelis-Menten kinetics; for fluorescence signal over time: probe 2.0 μM (MCW-011 0.5 μM), PBS
T3 construct: His tag; made in house; host or cells: Escherichia coli
Procedure: as §1, §2

NDM-1 = molecular target: T4, NDM-1 (Klebsiella pneumoniae, UniProt C7C422); assay type: biochemical; details: for Kcat / Km: Michaelis-Menten kinetics; for time until hydrolysis reaction complete (fluorescent signal plateaued): probe 2.0 μM; for fluorescence signal over time: probe 2.0 μM (MCW-002 1.1 μM, MCW-011 0.5 μM), PBS
T4 construct: His tag; made in house; host or cells: Escherichia coli
T4 sequence (C7C422 29-270 limits assumed): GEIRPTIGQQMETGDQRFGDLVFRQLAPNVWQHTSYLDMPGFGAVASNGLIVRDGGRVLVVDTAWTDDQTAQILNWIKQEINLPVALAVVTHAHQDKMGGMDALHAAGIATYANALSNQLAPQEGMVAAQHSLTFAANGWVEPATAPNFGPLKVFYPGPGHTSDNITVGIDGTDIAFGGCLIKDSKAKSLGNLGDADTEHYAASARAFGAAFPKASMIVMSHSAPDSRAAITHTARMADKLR
Procedure: as §1, §2

IMP-1 = molecular target: T5, IMP-1 (Serratia marcescens, UniProt P52699); assay type: biochemical; details: for 3S/k (detection limit of the probe towards the carbapenemase) / time until hydrolysis reaction complete (fluorescent signal plateaued) / fluorescence signal over time / Kcat / Km: IMP-1; for time until hydrolysis reaction complete (fluorescent signal plateaued): probe 2.0 μM; for fluorescence signal over time: probe 2.0 μM (MCW-002 1.1 μM, MCW-011 0.5 μM), PBS; for Kcat / Km: Michaelis-Menten kinetics
T5 construct: His tag; made in house; host or cells: Escherichia coli
T5 sequence (P52699 19-246 limits assumed): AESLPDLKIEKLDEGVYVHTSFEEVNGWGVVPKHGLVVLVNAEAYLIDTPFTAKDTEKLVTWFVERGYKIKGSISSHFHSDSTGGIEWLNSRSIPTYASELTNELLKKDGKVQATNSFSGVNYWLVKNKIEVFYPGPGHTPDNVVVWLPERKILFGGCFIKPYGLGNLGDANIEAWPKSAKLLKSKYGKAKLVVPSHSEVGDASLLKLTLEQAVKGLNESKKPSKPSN
Procedure: as §1, §2

KPC-2 = molecular target: T6, KPC-2 (Klebsiella pneumoniae, UniProt Q9F663); assay type: biochemical; details: for Kcat / Km: Michaelis-Menten kinetics; for fluorescence signal over time: probe 2.0 μM (MCW-002 1.1 μM, MCW-011 0.5 μM), PBS
T6 construct: His tag; made in house; host or cells: Escherichia coli
T6 sequence (Q9F663 25-293 limits assumed): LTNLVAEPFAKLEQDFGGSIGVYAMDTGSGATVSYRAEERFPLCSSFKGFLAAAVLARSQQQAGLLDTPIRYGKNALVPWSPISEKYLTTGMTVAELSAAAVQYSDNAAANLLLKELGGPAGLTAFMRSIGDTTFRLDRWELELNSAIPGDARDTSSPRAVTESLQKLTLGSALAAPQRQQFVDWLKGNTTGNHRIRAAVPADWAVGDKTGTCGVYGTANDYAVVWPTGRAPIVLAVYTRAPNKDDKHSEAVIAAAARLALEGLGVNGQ
Procedure: as §1, §2

AmpC = experiment: Activity of beta-lactamases towards probes (fluorescence-based activity assay), AmpC; assay type: biochemical; details: probe 2.0 μM (MCW-002 1.1 μM, MCW-011 0.5 μM), PBS
Procedure: as §1, §2

[3] = tested on: beta-lactamases, including NDM-1, IMP-1, VIM-2, KPC-2, OXA-48, AmpC, and TEM; experiment: Hydrolysis of nitrocefin by beta-lactamases, absorbance at 485 nm; assay type: biochemical; details: nitrocefin 50 μM
Procedure: as §1
The enzymatic activity of these beta-lactamases in hydrolysing beta-lactam compounds was tested using nitrocefin as a probe. Nitrocefin (50 μM) dissolved in phosphate buffer (pH=7.4) was mixed with each purified beta-lactamase. Once hydrolyzed, nitrocefin underwent a rapid color change from yellow to red. The hydrolysis process of nitrocefin was monitored by measuring the absorbance at 485 nm with a Molecular Device SpectraMax® Paradigm® Multi-Mode Microplate Reader.
as §3

| Structure (SMILES) | specificity among the tested beta-lactamases [1] | signal with panel of clinical isolates ([2]; incubated for 15 min) | signal with panel of clinical isolates ([2]; incubated for 120 min) | fluorescence signal over time (TEM) | 3S/k (detection limit of the probe towards the carbapenemase) (OXA-48) [pM] | fluorescence signal over time (OXA-48) | 3S/k (detection limit of the probe towards the carbapenemase) (VIM-2) [pM] | relative rate of hydrolysis reaction (VIM-2) | Kcat (VIM-2) [s⁻¹] | Km (VIM-2) [µM] | fluorescence signal over time (VIM-2) | 3S/k (detection limit of the probe towards the carbapenemase) (NDM-1) [pM] | Kcat (NDM-1) [s⁻¹] | Km (NDM-1) [µM] | time until hydrolysis reaction complete (fluorescent signal plateaued) (NDM-1) [min] | fluorescence signal over time (NDM-1) | 3S/k (detection limit of the probe towards the carbapenemase) (IMP-1) [pM] | time until hydrolysis reaction complete (fluorescent signal plateaued) (IMP-1) [min] | fluorescence signal over time (IMP-1) | Kcat (IMP-1) [s⁻¹] | also measured |
| --- | --- | --- | --- | --- | --- | --- | --- | --- | --- | --- | --- | --- | --- | --- | --- | --- | --- | --- | --- | --- | --- |
| COc1cc(COc2ccc3nc4ccc(=O)cc-4oc3c2)ccc1OC/C=C/C1=C(C(=O)O)N2C(=O)[C@H]([C@@H](C)O)[C@H]2C1 [MCW-001, (5R,6S)-6-((R)-1-hydroxyethyl)-3-((E)-3-(2-methoxy-4-(((3-oxo-3H-phenoxazin-7-yl)oxy)methyl)phenoxy)prop-1-en-1-yl)-7-oxo-1-azabicyclo[3.2.0]hept-2-ene-2-carboxylic acid] | specific for carbapenemases | observable colorimetric and fluorescence signal in CPE strains but not the Non CPE strains | observable colorimetric and fluorescence signal in CPE strains but not the Non CPE strains | minimal changes in the fluorescent signal | 30.3 | pronounced increase in the fluorescent signal | 3.28 | slower compared to the reactions with NDM-1 and IMP-1 | 1.96 ± 0.05 | 1.18 ± 0.1 | pronounced increase in the fluorescent signal | 0.327 | 29.8 ± 0.81 | 1.66 ± 0.13 | ≤ 2 | pronounced increase in the fluorescent signal | 0.333 | ≤ 2 | pronounced increase in the fluorescent signal | 33.9 ± 0.71 | Kcat (OXA-48; Michaelis-Menten kinetics): 2.83 ± 0.18 s⁻¹; Km (OXA-48; Michaelis-Menten kinetics): 0.66 ± 0.08 µM; time until hydrolysis reaction complete (fluorescent signal plateaued) (OXA-48; probe 2.0 μM): > 30 min; time until hydrolysis reaction complete (fluorescent signal plateaued) (VIM-2; probe 2.0 μM): about 25 min; fluorescence turn-on signal upon beta-lactam hydrolysis (IMP-1; MCW-001 1 μM, IMP-1 0.5 μM): more than 60 fold; absorption change over time (IMP-1; MCW-001 10 μM, IMP-1 2 μM): decreased in absorbance maximum at 480 nm and increase in absorbance maximum at 571 nm; Km (IMP-1): 1.2 ± 0.08 µM; 3S/k (detection limit of the probe towards the carbapenemase) (KPC-2): 4.43 pM; relative rate of hydrolysis reaction (KPC-2): slower compared to the reactions with NDM-1 and IMP-1; Kcat (KPC-2): 2.17 ± 0.07 s⁻¹; Km (KPC-2): 0.93 ± 0.11 µM; time until hydrolysis reaction complete (fluorescent signal plateaued) (KPC-2; probe 2.0 μM): about 25 min; fluorescence signal over time (KPC-2): pronounced increase in the fluorescent signal; fluorescence signal over time (AmpC): minimal changes in the fluorescent signal |
| COc1cc(COc2ccc3nc4ccc(=O)cc-4oc3c2)ccc1OC/C=C/C1=C(C(=O)O)N2C(=O)[C@H]([C@@H](C)O)[C@H]2[C@H]1C [MCW-007, (4S,5R,6S)-6-((R)-1-hydroxyethyl)-3-((E)-3-(2-methoxy-4-(((3-oxo-3H-phenoxazin-7-yl)oxy)methyl)phenoxy)prop-1-en-1-yl)-4-methyl-7-oxo-1-azabicyclo[3.2.0]hept-2-ene-2-carboxylic acid] | specific for some carbapenemases | observable colorimetric and fluorescence signal in some CPE strains but not the Non CPE strains | observable colorimetric and fluorescence signal in CPE strains but not the Non CPE strains | minimal changes in the fluorescent signal | 367 | did not provide significant fluorescence response | 5.22 | slower compared to the reaction with NDM-1 and IMP-1 | 6.87 ± 0.11 | 0.92 ± 0.04 | pronounced increase in the fluorescent signal | 0.439 | 95.1 ± 4.32 | 1.56 ± 0.17 | ≤ 5 | pronounced increase in the fluorescent signal | 0.379 | ≤ 5 | pronounced increase in the fluorescent signal | 116 ± 2.81 | Km (IMP-1): 1.33 ± 0.08 µM; 3S/k (detection limit of the probe towards the carbapenemase) (KPC-2): 8.50 pM; relative rate of hydrolysis reaction (KPC-2): slower compared to the reaction with NDM-1 and IMP-1; Kcat (KPC-2): 8.04 ± 1.96 s⁻¹; Km (KPC-2): 0.77 ± 0.06 µM; fluorescence signal over time (KPC-2): pronounced increase in the fluorescent signal; fluorescence signal over time (AmpC): minimal changes in the fluorescent signal |
| O=C(Cc1cccs1)N[C@@H]1C(=O)N2C(C(=O)O)=C(/C=C/c3ccc([N+](=O)[O-])cc3[N+](=O)[O-])CS[C@H]12 [nitrocefin] | – | – | – | – | – | – | – | – | – | – | – | – | – | – | – | – | – | – | – | – | hydrolysis of nitrocefin ([3]; all of the tested beta-lactamases): can hydrolyze nitrocefin; time until hydrolysis reactions complete (absorption at 485 nm plateaued) ([3]; except NDM-1): ≤ 30 min |

Source: patent US20210207188A1, “BETA-LACTAM COMPOUNDS AND METHODS OF USE THEREOF” (priority 2018, published 2021)
